Consider three compounds from patent US20240041042A1, “1-(PYRIDYL)-5-AZINYLPYRAZOLE DERIVATIVES, AND THEIR USE FOR CONTROL OF UNDESIRED PLANT GROWTH” (Bayer Aktiengesellschaft, priority 2020, published 2024).

Format in all cases: in vivo
The test system of series [1] is Verconica persica (VERPE). The series is described as follows: Pre-emergence herbicidal action against VERPE. The conditions noted are these: dosage 320 g/ha. Put shortly: (§1)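 Pre-emergence soil-surface spray of compound, formulated as wettable powder or emulsion concentrate, in aqueous suspension or emulsion with 0.5% additive (600 l/ha; rate 320 g/ha or less). Activity rated visually after roughly 3 weeks in the greenhouse as a percentage of untreated controls, 0% meaning no difference.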

Series [2] deals with Viola tricolor (VIOTR). The series is described as follows: Pre-emergence herbicidal action against VIOTR. In short, it runs like this:
as §1

The subject of series [3] is Brassica napus (BRSNW). The following applies: crop plant compatibility, in comparison to untreated controls. In short, it runs like this:
(§2)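 Scoring: visual, % of untreated control, about 3 weeks after a pre-emergence application to the soil surface. Application used WP or EC formulations diluted in water with 0.5% additive at 600 l/ha; dosage levels are marked by suffixes a, b and c.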

For series [4], the system named is Glycine max (GLXMA). The following applies: pre-emergence, crop plant compatibility, in comparison to untreated controls. Put shortly: as §2
The test system of series [5] is Oryza sativa (ORYSA). The conditions noted are these: pre-emergence, crop plant compatibility, in comparison to untreated controls. In short, it runs like this: as §2
Series [6] concerns Triticum aestivum (TRZAS). The conditions noted are these: pre-emergence, crop plant compatibility, in comparison to untreated controls. In short, it runs like this:
as §2

Series [7] deals with Zea mays (ZEAMX). The conditions noted are these: pre-emergence, crop plant compatibility, in comparison to untreated controls. Put shortly:
as §2

In series [8] the test system is Verconica persica (VERPE). The series is described as follows: Post-emergence herbicidal action against VERPE. The following applies: 320 g/ha, VERPE. In short, it runs like this: (§3)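 Values are percent visual activity (0% like control, 100% plants dead) after about 3 weeks in the greenhouse. Treatment: post-emergence spray at one-leaf stage, 600 l/ha spray volume, 0.5% additive, doses 320 g/ha or lower.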

The test system of series [9] is Viola tricolor (VIOTR). The series is described as follows: Post-emergence herbicidal action against VIOTR. The conditions noted are these: 320 g/ha. In short, it runs like this: as §3
The test system of series [10] is Oryza sativa (ORYSA). The following applies: crop plant compatibility. In short, it runs like this: (§4)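 Test crops were treated 2 to 3 weeks after sowing, once they reached one leaf, by spraying compound in water with 0.5% additive at 600 l/ha. Visual scoring compared them with untreated controls roughly 3 weeks on, and appendices a, b and c denote different doses.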

The subject of series [11] is Triticum aestivum (TRZAS). The following applies: crop plant compatibility, effect vs untreated controls. In short, it runs like this: as §4
Series [12] concerns Zea mays (ZEAMX). The conditions noted are these: for Post-emergence action against ZEAMX in %: crop plant compatibility, effect vs untreated controls. Put shortly:
as §4

Series [13] has as its system Glycine max (GLXMA). The series is described as follows: Post-emergence crop plant compatibility, GLXMA. The following applies: for Post-emergence action against GLXMA in %: 80 g/ha, effect in comparison to untreated controls. As to the method:
(§5) Seeds of monocotyledonous and dicotyledonous weeds and crop plants are placed in sandy loam in plastic or organic planting pots, covered with soil and cultivated in a greenhouse under controlled growth conditions. 2 to 3 weeks after sowing, the test plants are treated at the one-leaf stage. The compounds of the invention, formulated in the form of wettable powders (WP) or as emulsion concentrates (EC), are then sprayed onto the green parts of the plants as aqueous suspension or emulsion with addition of 0.5% additive at a water application rate of 600 l/ha (converted). After the test plants have been kept in the greenhouse under optimum growth conditions for about 3 weeks, the activity of the preparations is rated visually in comparison to untreated controls. For example, 100% activity=the plants have died, 0% activity=like control plants.
(§6) The observed effects on selected crop plants are reported here in comparison to the untreated controls (values in %). The appendices “a”, “b” and “c” give differentiation by dosage used with otherwise the same crop plants tested.

Series [14] concerns Amaranthus retroflexus (AMARE). The series is described as follows: Pre-emergence herbicidal action against AMARE. The conditions noted are these: visual scoring after about 3 weeks vs untreated controls. Put shortly:
as §1

For series [15], the system named is Amaranthus retroflexus (AMARE). The series is described as follows: Post-emergence herbicidal action against AMARE. In short, it runs like this: as §3
The subject of series [16] is Polygonum convolvulus (POLCO). The series is described as follows: Post-emergence herbicidal action against POLCO. The following applies: dosage 320 g/ha. Put shortly: as §3
Series [17] concerns Setaria viridis (SETVI). The series is described as follows: Post-emergence herbicidal action against SETVI. Put shortly: as §3
Series [18] concerns Alopecurus myosuroides (ALOMY). The series is described as follows: Pre-emergence herbicidal action against ALOMY. The conditions noted are these: scored visually after about 3 weeks, 100% = plants have died. In short, it runs like this: as §1
The subject of a further series is Avena fatua (AVEFA). The series is described as follows: Pre-emergence herbicidal action against AVEFA. The following applies: 320 g/ha, visual scoring after about 3 weeks vs untreated controls. In short, it runs like this:
as §1

Series [19] deals with Echinochloa crus-galli (ECHCG). The series is described as follows: Pre-emergence herbicidal action against ECHCG. The conditions noted are these: dosage 320 g/ha. Put shortly: as §1
Another series has as its system Lolium rigidum (LOLRI). The series is described as follows: Pre-emergence herbicidal action against LOLRI. The conditions noted are these: dosage 320 g/ha. Put shortly: as §1
Series [20] concerns Polygonum convolvulus (POLCO). The series is described as follows: Pre-emergence herbicidal action against POLCO. In short, it runs like this: as §1
Series [21] deals with Setaria viridis (SETVI). The series is described as follows: Pre-emergence herbicidal action against SETVI. The conditions noted are these: dosage 320 g/ha. Put shortly: as §1
The subject of series [22] is Echinochloa crus-galli (ECHCG). The series is described as follows: Post-emergence herbicidal action against ECHCG. The conditions noted are these: dosage 80 g/ha. Put shortly:
as §3

Series [23] has as its system Brassica napus (BRSNW). The series is described as follows: Post-emergence crop plant compatibility, BRSNW. The conditions noted are these: 20 g/ha, effect in comparison to untreated controls. As for the experimental part: as §5, §6
The mark [24] stands for this setting: 80 g/ha, effect in comparison to untreated controls.
Where [25] appears, read: 320 g/ha, effect in comparison to untreated controls.

Like-named read-outs stand apart in the source and are kept apart here.

For the compound `CCOC(=O)COc1nn(-c2ccc(Br)c(C)n2)c(-c2cncc(F)c2)c1Br` [Example I-161], in series [1], the “Pre-emergence action against VERPE in %” value is 80%. Moreover, the “Pre-emergence action against VIOTR in %” value with Viola tricolor (VIOTR) [2] (320 g/ha, Viola tricolor) came to 90%. The “Pre-emergence action against BRSNW in %” value with Brassica napus (BRSNW) [3] (80 g/ha) and in the series on Brassica napus (BRSNW) [3] (320 g/ha) was 10% in each case. In addition, the “Pre-emergence action against GLXMA in %” value with Glycine max (GLXMA) [4] (80 g/ha) is given as 0%. Also, the “Pre-emergence action against ORYSA in %” value in the series on Oryza sativa (ORYSA) [5] (80 g/ha) and with Oryza sativa (ORYSA) [5] (320 g/ha) was 0% in each case. Besides, the “Pre-emergence action against TRZAS in %” value was 0% in series [6] (80 g/ha) and 20% in series [6] (320 g/ha). In addition, the “Pre-emergence action against ZEAMX in %” value with Zea mays (ZEAMX) [7] (80 g/ha) and with Zea mays (ZEAMX) [7] (320 g/ha) was 20% each time. Further, in series [8], the “Post-emergence action against VERPE in %” value is 80%. Moreover, in the series with Viola tricolor (VIOTR) [9], the “Post-emergence action against VIOTR in %” value was determined as 80%. Besides, the “Post-emergence action against ORYSA in %” value in the series with Oryza sativa (ORYSA) [10] (setting [24]) and in the series with Oryza sativa (ORYSA) [10] (setting [25]) was 0% each time. The entries for the “Post-emergence action against TRZAS in %” value in series [11] (80 g/ha) and in series [11] (320 g/ha) were 0% and 10%, respectively. Further, the “Post-emergence action against ZEAMX in %” value in the series on Zea mays (ZEAMX) [12] (80 g/ha) and with Zea mays (ZEAMX) [12] (320 g/ha) was 10% each time. Also, in the series with Glycine max (GLXMA) [13], the “Post-emergence action against GLXMA in %” value turned out to be 0%.
`CCOC(=O)C[S+]([O-])c1nn(-c2ccccn2)c(-c2cncc(F)c2)c1Cl` (centres unmarked) [Example I-150]: the “Pre-emergence action against AMARE in %” value in series [14] (320 g/ha) was 80%. Further, in the series with Brassica napus (BRSNW) [3] (80 g/ha), the “Pre-emergence action against BRSNW in %” value is reported as 0%. Further, the “Pre-emergence action against GLXMA in %” value in the series on Glycine max (GLXMA) [4] (80 g/ha) and in the series with Glycine max (GLXMA) [4] (320 g/ha) was 0% each time. Also, in the series on Oryza sativa (ORYSA) [5] (80 g/ha), the “Pre-emergence action against ORYSA in %” value came to 20%. Moreover, the “Pre-emergence action against TRZAS in %” value in [6] (80 g/ha) and in [6] (320 g/ha) was 0% throughout. Further, the “Post-emergence action against AMARE in %” value stood at 80% in series [15] (80 g/ha, visual rating about 3 weeks after treatment vs untreated controls (100% = plants have died, 0% = like control plants)) and 80% in series [15] (320 g/ha, visual rating about 3 weeks after treatment). Further, in [16], the “Post-emergence action against POLCO in %” value was found to be 90%. For the same compound, the “Post-emergence action against SETVI in %” value in the series on Setaria viridis (SETVI) [17] (dosage 320 g/ha) stood at 80%. Moreover, in the series with Viola tricolor (VIOTR) [9], the “Post-emergence action against VIOTR in %” value came to 80%. In addition, the “Post-emergence action against ORYSA in %” value with Oryza sativa (ORYSA) [10] (setting [24]) and in the series with Oryza sativa (ORYSA) [10] (setting [25]) was 0% each time. Moreover, the figures for the “Post-emergence action against TRZAS in %” value in series [11] (80 g/ha) and in [11] (320 g/ha) were 0% and 10%, respectively. Also, the “Post-emergence action against ZEAMX in %” value with Zea mays (ZEAMX) [12] (80 g/ha) and with Zea mays (ZEAMX) [12] (320 g/ha) was 0% throughout. In addition, the “Post-emergence action against GLXMA” value with Glycine max (GLXMA) [13] (320 g/ha, effect vs untreated controls) is listed as 0%. In addition, in the series with Glycine max (GLXMA) [13], the “Post-emergence action against GLXMA in %” value was 0%.
As to `CCOC(=O)CCNC(=O)COc1nn(-c2ncccc2F)c(-c2ccc(OC)nc2)c1Br` [Example I-47], the “Pre-emergence action against ALOMY” value in [18] (80 g/ha) and in [18] (320 g/ha) was 90% each time. Further, the “Pre-emergence action against AMARE in %” value in series [14] (80 g/ha) and in series [14] (320 g/ha) was 100% in each case. Further, the “Pre-emergence action against AVEFA in %” value in the series on Avena fatua (AVEFA) is reported as 90%. Further, the “Pre-emergence action against ECHCG in %” value in series [19] turned out to be 90%. For the same compound, the “Pre-emergence action against LOLRI in %” value in the series on Lolium rigidum (LOLRI) is 100%. Further, the “Pre-emergence action against POLCO in %” value in series [20] (dosage 80 g/ha) stood at 80%; in series [20] (dosage 320 g/ha), 90%. The “Pre-emergence action against SETVI in %” value in the series on Setaria viridis (SETVI) [21] amounted to 100%. In series [1], the “Pre-emergence action against VERPE in %” value turned out to be 90%. Moreover, the “Pre-emergence action against VIOTR in %” value with Viola tricolor (VIOTR) [2] (320 g/ha, Viola tricolor) is 100%; in the series with Viola tricolor (VIOTR) [2] (dosage 80 g/ha), 100%. For the same compound, the “Pre-emergence action against ZEAMX in %” value in the series with Zea mays (ZEAMX) [7] (80 g/ha) turned out to be 20%. For the same compound, the “Post-emergence action against ECHCG in %” value in series [22] is reported as 80%. Moreover, in the series with Setaria viridis (SETVI) [17] (dosage 80 g/ha), the “Post-emergence action against SETVI in %” value is given as 90%. The “Post-emergence action against ORYSA in %” value amounted to 20% with Oryza sativa (ORYSA) [10] (20 g/ha, effect vs untreated controls) and 20% with Oryza sativa (ORYSA) [10] (setting [24]). Also, the “Post-emergence action against TRZAS in %” value in [11] (20 g/ha) is listed as 10%. For the same compound, the “Post-emergence action against ZEAMX in % (crop plant compatibility)” value in the series with Zea mays (ZEAMX) [12] (20 g/ha, ZEAMX, effect in comparison to untreated controls) is 10%. The “Post-emergence action against ZEAMX in %” value in the series on Zea mays (ZEAMX) [12] (80 g/ha) is given as 10%. Also, in the series on Brassica napus (BRSNW) [23], the “Post-emergence action against BRSNW in %” value turned out to be 10%.
